Here are results for 38 compounds from US20220411388A1, “SUBSTITUTED IMIDAZOLE CARBOXAMIDES AND THEIR USE IN THE TREATMENT OF MEDICAL DISORDERS” (Bial - R&D Investments, S.A., priority 2019, published 2022).

One series has as its target T1, acid ceramidase (hACR) (Homo sapiens, UniProt Q13510).
T1 construct: expressed in transfected cells
T1 sequence (Q13510 22-395): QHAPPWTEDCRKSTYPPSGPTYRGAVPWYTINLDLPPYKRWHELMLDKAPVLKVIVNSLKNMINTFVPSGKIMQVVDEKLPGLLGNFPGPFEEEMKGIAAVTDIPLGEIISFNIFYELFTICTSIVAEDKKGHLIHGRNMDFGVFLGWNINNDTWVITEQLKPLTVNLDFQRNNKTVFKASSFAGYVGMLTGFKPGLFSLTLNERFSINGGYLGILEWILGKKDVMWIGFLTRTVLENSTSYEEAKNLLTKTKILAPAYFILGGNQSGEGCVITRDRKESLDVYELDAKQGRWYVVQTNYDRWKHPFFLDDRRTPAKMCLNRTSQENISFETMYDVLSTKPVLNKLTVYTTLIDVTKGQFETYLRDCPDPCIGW
Nature of the series: Acid ceramidase inhibition, biochemical fluorescent assay with cell lysates overexpressing acid ceramidase (substrate Rbm14-12). To be noted: cell lysate, 1 hr preincubation at RT, pH 4.5, Rbm14-12 6.3 μM; read-out: IC50 hACR. The procedure, abridged:
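Enzyme source was lysate from cells overexpressing acid ceramidase, 10 µg protein per reaction. Compounds were preincubated 1 h at RT in 25 mM NaAc, 100 mM NaCl, pH 4.5.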

A short description of series [1]: Compound solubility in water. Type of series: physicochemical.

Values after ≈ are worked out from the molar mass of the structure shown.

In general, IC50 refers to the concentration needed to halve the response being measured. As usually defined, the solubility is how much of the substance goes into solution per volume. Low readings indicate little dissolved substance, high ones much dissolved substance. As for `COc1nc(C(C)(C)C)cn1C(=O)NC1CCC(F)(F)CC1` [Example 112, 4-(tert-Butyl)-N-(4,4-difluorocyclohexyl)-2-methoxy-1H-imidazole-1-carboxamide], the IC50 on acid ceramidase (hACR) was in the range of 0.2 to 1 µM. Further, in series [1], the concentration in solution (solubility) was 0.012 mg/mL (≈ 38.1 µM).
The like results for `COc1nc(C(C)(C)C)cn1C(=O)NC1CC1` [Example 113, 4-(tert-Butyl)-N-cyclopropyl-2-methoxy-1H-imidazole-1-carboxamide] were, in that order, 0.2 to 1 µM and 0.024 mg/mL (≈ 101 µM).
For `COc1nc(C(C)(C)C)cn1C(=O)NC1CCOCC1` [Example 114, 4-(tert-Butyl)-2-methoxy-N-(tetrahydro-2H-pyran-4-yl)-1H-imidazole-1-carboxamide], the half-inhibitory concentration (IC50) at acid ceramidase (hACR) was 0.2 to 1 µM. Moreover, the concentration in solution in series [1] (solubility) came to 0.029 mg/mL (≈ 103 µM).
The like results for `CC(C)CCNC(=O)n1cc(C(C)(C)C)nc1Oc1ccccc1F` [Example 115, 4-tert-Butyl-2-(2-fluorophenoxy)-N-iso-pentyl-1H-imidazole-1-carboxamide] were, in that order, 0.2 to 1 µM and 0.0004 mg/mL (≈ 1.15 µM).
`CC(C)CCNC(=O)n1cc(C(C)(C)C)nc1Oc1ccc(F)cc1` [Example 116, 4-tert-Butyl-2-(4-fluorophenoxy)-N-iso-pentyl-1H-imidazole-1-carboxamide]: at acid ceramidase (hACR), the IC50 is less than 0.2 µM. In series [1], this compound showed a solubility of 0.001 mg/mL (≈ 2.88 µM).
On to `COCCOc1nc(C(C)(C)C)cn1C(=O)NCCC(C)C` [Example 117, 4-(tert-Butyl)-N-iso-pentyl-2-(2-methoxyethoxy)-1H-imidazole-1-carboxamide], for which the IC50 on acid ceramidase (hACR) lay in the range of 0.2 to 1 µM. The compound further registered a solubility in series [1] of 0.01 mg/mL (≈ 32.1 µM).
The like results for `COc1nc(C2CCOC2)cn1C(=O)NCCCc1ccccc1` (stereo not shown) [Example 118, 2-Methoxy-N-(3-phenylpropyl)-4-(tetrahydrofuran-3-yl)-1H-imidazole-1-carboxamide] were, in that order, less than 0.2 µM and 0.017 mg/mL (≈ 51.6 µM).
Regarding `COc1nc(C)cn1C(=O)NCCC(C)C` [Example 119, N-iso-Pentyl-2-methoxy-4-methyl-1H-imidazole-1-carboxamide], the IC50 at acid ceramidase (hACR) lay in the range of 0.2 to 1 µM. In addition, the concentration in solution in series [1] (solubility) was 0.014 mg/mL (≈ 62.1 µM).
In the case of `COc1nccn1C(=O)NC1CCCCC1` [Example 120, N-Cyclohexyl-2-methoxy-1H-imidazole-1-carboxamide], at acid ceramidase (hACR), the 50% inhibitory concentration (IC50) is greater than 1 µM. In series [1], this compound gave a solubility of 0.014 mg/mL (≈ 62.7 µM).
`CCOc1nccn1C(=O)NCCC(C)C` [Example 121, 2-Ethoxy-N-iso-pentyl-1H-imidazole-1-carboxamide]: the IC50 at acid ceramidase (hACR) was 0.2 to 1 µM. Also, the solubility in series [1] was found to be 0.023 mg/mL (≈ 102 µM).
The like results for `CC(C)CCNC(=O)n1ccnc1OC(C)C` [Example 122, N-iso-Pentyl-2-iso-propoxy-1H-imidazole-1-carboxamide] were, in that order, 0.2 to 1 µM and 0.021 mg/mL (≈ 87.7 µM).
In the case of `COc1nccn1C(=O)NCCCC(C)C` [Example 123, 2-Methoxy-N-(4-methylpentyl)-1H-imidazole-1-carboxamide], at acid ceramidase (hACR), the IC50 is less than 0.2 µM. In series [1], this compound came in with a solubility of 0.016 mg/mL (≈ 71 µM).
The like results for `COc1nccn1C(=O)NCCCc1ccccc1` [Example 124, 2-methoxy-N-(3-phenylpropyl)-1H-imidazole-1-carboxamide] were, in that order, less than 0.2 µM and 0.02 mg/mL (≈ 77.1 µM).
As to `COc1nc(C2CC2)cn1C(=O)NC1CC1` [Example 125, N,4-Dicyclopropyl-2-methoxy-1H-imidazole-1-carboxamide], on acid ceramidase (hACR), the IC50 is greater than 1 µM. Moreover, the solubility in series [1] was 0.014 mg/mL (≈ 63.3 µM).
The like results for `COc1nc(C2CCCC2)cn1C(=O)NC1CC1` [Example 126, 4-Cyclopentyl-N-cyclopropyl-2-methoxy-1H-imidazole-1-carboxamide] were, in that order, 0.2 to 1 µM and 0.013 mg/mL (≈ 52.1 µM).
The like results for `COc1nc(C2CC2)cn1C(=O)NCCC(C)C` [Example 127, 4-Cyclopropyl-N-iso-pentyl-2-methoxy-1H-imidazole-1-carboxamide] were, in that order, greater than 1 µM and 0.023 mg/mL (≈ 91.5 µM).
In the case of `COc1nc(C2CCOC2)cn1C(=O)NC1CC1` (stereo not shown) [Example 128, N-Cyclopropyl-2-methoxy-4-(tetrahydrofuran-3-yl)-1H-imidazole-1-carboxamide], the IC50 on acid ceramidase (hACR) was greater than 1 µM. In series [1], the concentration in solution (solubility) came to 0.015 mg/mL (≈ 59.7 µM).
For the compound `CCC1(NC(=O)n2cc(C(C)(C)C)nc2OC)CC1` [Example 129, 4-(tert-Butyl)-N-(1-ethylcyclopropyl)-2-methoxy-1H-imidazole-1-carboxamide], the concentration for half-maximal inhibition (IC50) at acid ceramidase (hACR) was greater than 1 µM. In series [1], the solubility was 0.016 mg/mL (≈ 60.3 µM).
Turning to `COc1nc(C2CC2)cn1C(=O)NCCc1ccccc1` [Example 130, 4-Cyclopropyl-2-methoxy-N-phenethyl-1H-imidazole-1-carboxamide], the IC50 at acid ceramidase (hACR) was 0.2 to 1 µM. In series [1], the solubility was found to be 0.012 mg/mL (≈ 42.1 µM).
The like results for `COc1nc(C2CCOC2)cn1C(=O)NCCCCC1CC1` (stereo not shown) [Example 131, N-(4-Cyclopropylbutyl)-2-methoxy-4-(tetrahydrofuran-3-yl)-1H-imidazole-1-carboxamide] were, in that order, 0.2 to 1 µM and 0.023 mg/mL (≈ 74.8 µM).
The like results for `CSc1nccn1C(=O)NCCC(C)C` [Example 132, N-iso-Pentyl-2-(methylthio)-1H-imidazole-1-carboxamide] were, in that order, less than 0.2 µM and 0.01 mg/mL (≈ 44 µM).
As to `COc1nc(C(C)(C)C)cn1C(=O)NCCCCn1ccc(C(C)(C)C)n1` [Example 134, 4-(tert-Butyl)-N-(4-(3-(tert-butyl)-1H-pyrazol-1-yl)butyl)-2-methoxy-1H-imidazole-1-carboxamide], the IC50 at acid ceramidase (hACR) is less than 0.2 µM. The same compound had a solubility in series [1] of 0.018 mg/mL (≈ 47.9 µM).
For `COc1nccn1C(=O)NCCc1ccccc1` [Example 135, 2-Methoxy-N-phenethyl-1H-imidazole-1-carboxamide], in that order: less than 0.2 µM and 0.026 mg/mL (≈ 106 µM).
The like results for `COc1nccn1C(=O)NCCCCc1ccccc1` [Example 136, 2-Methoxy-N-(4-phenylbutyl)-1H-imidazole-1-carboxamide] were, in that order, less than 0.2 µM and 0.022 mg/mL (≈ 80.5 µM).
The like results for `COc1nccn1C(=O)NCCCC1(C(F)(F)F)CC1` [Example 137, 2-Methoxy-N-(3-(1-(trifluoromethyl)cyclopropyl)propyl)-1H-imidazole-1-carboxamide] were, in that order, less than 0.2 µM and 0.029 mg/mL (≈ 99.6 µM).
Consider `COc1nccn1C(=O)NCCCCC1(C(F)(F)F)CC1` [Example 138, 2-Methoxy-N-(4-(1-(trifluoromethyl)cyclopropyl)butyl)-1H-imidazole-1-carboxamide], for which the half-inhibitory concentration (IC50) at acid ceramidase (hACR) is less than 0.2 µM. This compound showed a solubility in series [1] of 0.027 mg/mL (≈ 88.4 µM).
For `COc1nc(C)cn1C(=O)NCCCC(F)(F)F` [Example 139, 2-Methoxy-4-methyl-N-(4,4,4-trifluorobutyl)-1H-imidazole-1-carboxamide], the IC50 at acid ceramidase (hACR) was 0.2 to 1 µM. The concentration in solution in series [1] (solubility) was 0.032 mg/mL (≈ 121 µM).
Take `COc1nc(-c2ccccc2)cn1C(=O)NC1CC1` [Example 140, N-Cyclopropyl-2-methoxy-4-phenyl-1H-imidazole-1-carboxamide]: the IC50 on acid ceramidase (hACR) is greater than 1 µM. For the same compound, the solubility in series [1] was 0.027 mg/mL (≈ 105 µM).
The like results for `COc1nc(C)cn1C(=O)NCCCc1ccccc1` [Example 141, 2-Methoxy-4-methyl-N-(3-phenylpropyl)-1H-imidazole-1-carboxamide] were, in that order, less than 0.2 µM and 0.024 mg/mL (≈ 87.8 µM).
Take `COc1nc(C)cn1C(=O)NCCCC(C)C` [Example 142, 2-Methoxy-4-methyl-N-(4-methylpentyl)-1H-imidazole-1-carboxamide]: at acid ceramidase (hACR), the IC50 is 0.2 to 1 µM. In series [1], this compound registered a solubility of 0.022 mg/mL (≈ 91.9 µM).
`COc1nc(C)cn1C(=O)NCCc1ccccc1` [Example 143, 2-Methoxy-4-methyl-N-phenethyl-1H-imidazole-1-carboxamide]: the IC50 at acid ceramidase (hACR) was less than 0.2 µM. The compound further displayed a solubility in series [1] of 0.027 mg/mL (≈ 104 µM).
The like results for `COc1nc(C)cn1C(=O)NCCCOc1ccccc1` [Example 144, 2-Methoxy-4-methyl-N-(3-phenoxypropyl)-1H-imidazole-1-carboxamide] were, in that order, less than 0.2 µM and 0.026 mg/mL (≈ 89.9 µM).
Regarding `COc1nc(C)cn1C(=O)NCCCC1(C(F)(F)F)CC1` [Example 145, 2-Methoxy-4-methyl-N-(3-(1-(trifluoromethyl)cyclopropyl)propyl)-1H-imidazole-1-carboxamide], the IC50 on acid ceramidase (hACR) was less than 0.2 µM. In series [1], this compound gave a solubility of 0.028 mg/mL (≈ 91.7 µM).
Take `Cc1cn(C(=O)NCCC(C)C)c(Oc2ccccc2)n1` [Example 146, N-iso-Pentyl-4-methyl-2-phenoxy-1H-imidazole-1-carboxamide]: the IC50 on acid ceramidase (hACR) is less than 0.2 µM. In series [1], this compound yielded a solubility of 0.019 mg/mL (≈ 66.1 µM).
The like results for `Cc1cn(C(=O)NC2CC2)c(Oc2ccccc2)n1` [Example 147, N-Cyclopropyl-4-methyl-2-phenoxy-1H-imidazole-1-carboxamide] were, in that order, less than 0.2 µM and 0.029 mg/mL (≈ 113 µM).
On to `COc1nc(C)cn1C(=O)NC1CC1` [Example 148, N-Cyclopropyl-2-methoxy-4-methyl-1H-imidazole-1-carboxamide], for which, at acid ceramidase (hACR), the IC50 was in the range of 0.2 to 1 µM. In series [1], the solubility is 0.023 mg/mL (≈ 118 µM).
For `Cc1cn(C(=O)NCCc2ccccc2)c(OC(C)C)n1` [Example 149, 2-iso-Propoxy-4-methyl-N-phenethyl-1H-imidazole-1-carboxamide], in that order: less than 0.2 µM and 0.021 mg/mL (≈ 73.1 µM).
The like results for `Cc1cnc(OC(C)C)n1C(=O)NCCc1ccccc1` [Example 150, 2-iso-Propoxy-5-methyl-N-phenethyl-1H-imidazole-1-carboxamide] were, in that order, less than 0.2 µM and 0.005 mg/mL (≈ 17.4 µM).
